Experimental data from US11839610B2 (priority 2022, dated 2023).
Like-named read-outs stand apart in the source and are kept apart here.

What was measured:
[1] = tested on: Omicron S protein pseudovirus (nCoV-S-Luc-B.1.1.529) in ACE2-293T cells; assay: microbe, parasite or virus in culture; assay type: cell-based; details: read-out: 50% inhibitory concentrations (IC50) for viral infection, Omicron
[2] = tested on: Delta S protein pseudovirus (nCoV-S-Luc-B.1.617.2) in ACE2-293T cells; assay: microbe, parasite or virus in culture; assay type: cell-based; details: for Levels of viral infection, Delta, Ave.: luciferase activity, Control group as 100%; for IC50: read-out: 50% inhibitory concentrations (IC50) for viral infection, Delta, alkaloid compounds, n = 3

| Molecule | Cell Viability (%) (ACE2-293T cells) | cytotoxic to the ACE2-293T cells (in words) (ACE2-293T cells) | IC50 [1] [nM] | Levels of viral infection, Delta, Ave. ([2]; Conc. 0.1 μM) [%] | Levels of viral infection, Delta, Ave. ([2]; Conc. 1 μM) [%] | Levels of viral infection, Delta, Ave. ([2]; Conc. 10 μM) [%] | IC50 [2] [nM] | Cell Viability (%) (ACE2-293T cells; human) | IC50 ([1]; Pseudovirus) [nM] | Levels of viral infection, Delta, Ave. ([2]; Conc. 5 μM) [%] | IC50 ([2]; Pseudovirus) [nM] |
| --- | --- | --- | --- | --- | --- | --- | --- | --- | --- | --- | --- |
| COc1cc2c3cc1Oc1c4c(cc5c1[C@H](Cc1ccc(cc1)Oc1cc(ccc1O)C[C@H]3N(C)CC2)N(C)CC5)OCO4 [Cepharanoline] | 97.24 ± 0.87 | caused no damages | 1310 ± 70 | 89.65 | 64.01 | −3.64 | 1640 ± 180 |  |  |  |  |
| COc1ccc2cc1Oc1ccc(cc1)C[C@H]1c3cc(c(OC)cc3CCN1C)Oc1c(O)c(OC)cc3c1[C@H](C2)N(C)CC3 [Fangchinoline] |  | caused no damages |  |  | 64.54 | 7.13 |  | 95.56 ± 2.82 | 1440 ± 60 | 27.89 | 1820 ± 20 |
| Cycleanine |  |  | 530 ± 30 | 118.65 | 88.48 | −3.84 | 2210 ± 500 |  |  |  |  |
